Measured values as given in EP3492086B1, “PHARMACEUTICAL COMPOSITION COMPRISING ZEBULARINE (1-(BETA-D-RIBOFURANOSYL)-2(1H)-PYRIMIDINONE) FOR USE IN PROMOTING REGENERATION AND WOUND HEALING” (Uniwersytet Gdanski, priority 2017, dated 2019).

How the values were obtained:
[1] = test system: laboratory mice; conditions: GM284 topical delivery (US2009/0093528A1); XAV-939 (Bastakoty et al. 2015); 1,4-DPCA (Zhang et al. 2015); cited from earlier work
[2] = test system: ear pinnae of the BALB/c 2-month-old female mice; assay: Ear pinnae hole closure (ear pinnae injury model, 2 mm through-and-through holes); format: in vivo
Experimental: In order to evaluate the regenerative effect of zebularine, through-and-through holes of 2 mm diameter were made in the ear pinnae of the BALB/c 2-month-old female mice using scissor style ear punch. The mice were randomly divided into two groups consisting of six individuals each. The mice of one group were intraperitoneally injected with 7 doses of zebularine dissolved in saline (50 mg/ml), 1000 mg/kg body weight, on the day of injury directly after punching, and 1, 2, 3, 4, 7, 10 days after injury. The second, control group, was administered with saline.
The experiment was repeated 8 times. Collectively, the experiment was performed for 47 zebularine treated and 48 saline (vehiculum) administered control mice. […] The mean ear hole areas determined on the day 42 post injury were 0.53+/-0.3 and 1.77+/-0.48 sq mm for zebularine treated and saline controls, respectively. The results expressed as percentage of wound closure correspond to 83.2% and 43.6% for the zebularine treated and control group, respectively (Figure 2).The timeline of regeneration process is presented in Figure 3. […] The distributions of ear hole areas on the day 42 after injury were plotted as dot diagrams, where each dot represents an individual ear (Figure 4). The diagrams not only show the biological variation in response to injury and zebularine treatment but clearly expose the contrast between the control and zebularine treated groups. […]

[3] = test system: Cdkn2a, Msx1, Nanog, Sox2, Bdnf, Sox1, Nog, and Myt1l; assay: Expression of pluripotency, developmental and cell cycle genes in the injury/repair area (real-time PCR); format: in vivo; conditions: day 7 after injury; zebularine treated versus control mice; most remarkable for Nanog and Sox2
From the text: In order to determine the effect of zebularine on the expression of pluripotency, developmental and cell cycle genes, the transcript levels for a panel of selected genes including Cdkn2a, Msx1, Nanog, Sox2, Bdnf, Sox1, Nog, and Myt1l were examined in the injury/repair area, in zebularine treated and control mice at the day 7, 14, 21 and 42 following injury in addition to unwounded ear pinnae designated as day 0. For the purpose, the ear punched mice were sacrificed at selected time points, the ears were collected on RNAlater reagent (Qiagen), stored at -80 °C until the rings surrounding the holes were excised using a 3 mm biopsy punch, following RNA extraction from thus obtained tissues using RNeasy kit (Qiagen). The levels of selected transcripts were determined for 6 mice (8 ears) for each time point using real-time PCR quantitation and Tbp and Actb as the reference genes. […] The most remarkable changes were found for the pluripotency genes, Nanog and Sox2 (Figure 7).

[4] = test system: 5-methylcytosine; assay: Global DNA methylation in the injury/regeneration area (5-mC DNA ELISA); format: in vivo, mice; conditions: day 7 following injury; zebularine treated versus control
From the text: DNA methylation in promoter regions is one of key epigenetic mechanisms responsible for gene repression. In order to determine the zebularine demethylating effect on DNA in the regenerating tissues, the content of 5-methylcytosine was compared in the tissues collected from the rings surrounding the ear pinnae holes in the zebularine treated and control animals. For the purpose, the ear punched zebularine treated and control mice were sacrificed at the days 7, 14, 21, and 42 after injury. The ears were collected, and the rings surrounding the holes were excised with a 3 mm biopsy punch, following genomic DNA extraction from thus obtained tissues using DNeasy kit (Qiagen). The levels of 5-methylcytosine were estimated using 5-mC DNA ELISA Kit (ZYMO, D5325) in 100 ng aliquots of genomic DNA.

[5] = test system: dorsal skin wounds, mice of the BALB/c strain; assay: Dorsal skin excision model, topical delivery, wound closure; format: in vivo
Experimental: The effect of topically delivered zebularine on wound healing was determined using the dorsal skin excision model. Six 2-month-old female mice of the BALB/c strain were used for the experiment. Prior to the injury, the mice were anaesthetized. The dorsal skin was shaved and disinfected. Two symmetrical full-thickness excisional wounds were made in the dorsum using a biopsy punch of 6 mm diameter. Ten microliter of zebularine suspension (200 mg per 1 ml of saline) was dropped directly onto the wound immediately after wounding and once daily for the next four days. Promptly after zebularine application, the wounds were covered with a transparent dressing, and next, the dressing was fastened with adhesive plaster wrapped around the mouse. An analogical experiment was performed for six mice of control group that were not treated with zebularine. The animal study protocol was approved by the Local Ethics Committee for Animal Experimentation at the University of Science and Technology in Bydgoszcz, Poland (Permit No. 49/2016).
The wounds were photographed on the day of injury (d0) and on the day 2, 4, 7, 9, 11, 14, and 18 after wounding. The wound closure progress was tracked by determining wound area using computer-assisted image analysis. […] Complete wound closure was observed on the day 11 for zebularine treated mice and on the day 18 for the control ones (Figure 13).

[6] = 37°C, pH 7.4 (Cheng et al. 2003); cited from earlier work
[7] = estimated (Ben-Kasus et al. 2005); cited from earlier work
[8] = test system: mice; conditions: 400 mg/kg body weight intraperitoneally for 78 consecutive days (Herranz et al. 2006); cited from earlier work

SMILES: O=C(O)c1c[nH]c2c(ccc3cccnc32)c1=O [1,4-DPCA, 4-oxo-1H-1,10-phenanthroline-3-carboxylic acid]
- ear hole closure reported in the literature (result in words) [1]: partial ear hole closure induction

SMILES: CC1=C(/C=C/C(C)=C/C=C/C(C)=C/C(=O)O)C(C)(C)CCC1=O [4-keto RA, 4-keto retinoic acid, reference compound]
- ear hole closure (result in words) ([2]; Example 4: i.p., zebularine 1000 mg/kg 7 times, RA or 4-keto RA 16 mg/kg 6 times, followed for 42 days): Partial ear hole closure

SMILES: Nc1ncn([C@@H]2O[C@H](CO)[C@@H](O)[C@H]2O)c(=O)n1 [5-azacytidine, reference compound]
- effect on ear hole closure (result in words) ([2]; 0.25 mg/kg body weight i.p., 7 times, day 42, 6 mice, compared with zebularine and saline): did not stimulate ear hole closure

SMILES: CCC(C)(C)C(=O)C(=O)N1CCC[C@H]1c1nnc([C@@H]2CCCN2C(=O)C(=O)C(C)(C)CC)o1 [GM284]
- ear hole closure reported in the literature (result in words) [1]: Ear hole closure

SMILES: Oc1nc(-c2ccc(C(F)(F)F)cc2)nc2c1CSCC2 [XAV-939]
- ear hole closure reported in the literature (result in words) [1]: partial ear hole closure induction

SMILES: O=c1ncccn1[C@@H]1O[C@H](CO)[C@@H](O)[C@H]1O [zebularine, 1-(β-D-ribofuranosyl)-2(1H)-pyrimidinone]
- mean ear hole areas determined on the day 42 post injury ([2]; 1000 mg/kg body weight intraperitoneally, 7 doses (day 0, 1, 2, 3, 4, 7, 10), 47 mice, saline control 1.77+/-0.48): 0.53+/-0.3 sq mm
- day after injury of maximal ear hole closure ([2]; 1000 mg/kg i.p., 7 doses): 35 days
- day after injury from which significantly better ear hole closure was recorded ([2]; 1000 mg/kg i.p., 7 doses, versus saline control): 21 days
- percentage of wound closure (ear hole closure area) ([2]; day 42 after injury, 1000 mg/kg i.p., 7 doses, control group 43.6%): 83.2%
- time to almost complete closure of the ear pinnae hole ([2]; representative mouse, 1000 mg/kg i.p., 7 doses (Figure 1)): approximately 30 days
- effect of subcutaneous delivery on ear pinnae hole closure ([2]; subcutaneous injections, 1000 mg/kg, 7 doses, day 42 (Figure 6)): statistically significant response but proved less effective than intraperitoneal delivery
- expression of the selected transcripts in the injury/repair area [3]: Significantly enhanced expression
- DNA methylation (5-methylcytosine content) in the injury/regeneration area [4]: significant decrease in DNA methylation
- decrease of the time of wound closure ([5]; 10 microliter of 200 mg/ml suspension after wounding and once daily for four days, 6 mm wounds): approximately 7 days
- day of complete wound closure ([5]; 10 microliter of 200 mg/ml suspension, five applications, control day 18): 11 days
- half-life in water [6]: 21.2 days
- RNA incorporation relative to DNA incorporation [7]: 7 fold
- toxic effects in mice [8]: No toxic effects
